Results: article PMC1890308, “Anti-calmodulins and Tricyclic Adjuvants in Pain Therapy Block the TRPV1 Channel” (PLoS ONE, 2007)

Key:
[1] = test system: heat evoked responses of dorsal horn neurons; assay: heat-evoked responses of spinal dorsal horn neurons, microiontophoresis, extracellular single unit recording; type: in vivo, rat
Method: To validate in vivo efficacy of calmidazolium, experiments were carried out in a total of 22 nociceptive specific (NS) or wide dynamic range (WDR) spinal dorsal horn neurons in 16 lightly anesthetized rats. Effects of calmidazolium were studied on the heat evoked responses of dorsal horn neurons using noxious peripheral heat stimuli delivered in every 3 min in the cutaneous receptive field of the hind paw. After establishing stable baseline control responses, calmidazolium was iontophoresed (i.e. with 100 nA) from one of the barrels of the compound electrode. […] The calmidazolium evoked inhibition reached its maximum within 10 to 15 min after ejection and lasted throughout the entire recording periods (about 2 hrs) of the experiment. The monitored cells had excitatory receptive fields located on one of the hind paws. These cells usually had little spontaneous activity, located between 100–600 µm from the surface of the dorsal horn, as estimated by microdrive readings. […] Likewise to that determined previously in TRPV1-NIH3T3 cells, TRPV1-HaCaT keratinocyte lines and primary culture of nociceptive neurons, calmidazolium inhibited the ratemeter recorded signals of radiation heat pain in the rat (Fig. 7). […]

heat-induced tail-flick = test system: heat-induced tail-flick; parameters: method as in PMID 8883861; details: cited from earlier work
TRPV1 = TRPV1 (Rattus norvegicus, UniProt O35433); assay: capsaicin-induced Ca2+-uptake in human TRPV1-HaCaT keratinocyte line; type: cell-based; parameters: expressed in transfected cells; details: data not shown
Chain of TRPV1 (O35433 whole entry): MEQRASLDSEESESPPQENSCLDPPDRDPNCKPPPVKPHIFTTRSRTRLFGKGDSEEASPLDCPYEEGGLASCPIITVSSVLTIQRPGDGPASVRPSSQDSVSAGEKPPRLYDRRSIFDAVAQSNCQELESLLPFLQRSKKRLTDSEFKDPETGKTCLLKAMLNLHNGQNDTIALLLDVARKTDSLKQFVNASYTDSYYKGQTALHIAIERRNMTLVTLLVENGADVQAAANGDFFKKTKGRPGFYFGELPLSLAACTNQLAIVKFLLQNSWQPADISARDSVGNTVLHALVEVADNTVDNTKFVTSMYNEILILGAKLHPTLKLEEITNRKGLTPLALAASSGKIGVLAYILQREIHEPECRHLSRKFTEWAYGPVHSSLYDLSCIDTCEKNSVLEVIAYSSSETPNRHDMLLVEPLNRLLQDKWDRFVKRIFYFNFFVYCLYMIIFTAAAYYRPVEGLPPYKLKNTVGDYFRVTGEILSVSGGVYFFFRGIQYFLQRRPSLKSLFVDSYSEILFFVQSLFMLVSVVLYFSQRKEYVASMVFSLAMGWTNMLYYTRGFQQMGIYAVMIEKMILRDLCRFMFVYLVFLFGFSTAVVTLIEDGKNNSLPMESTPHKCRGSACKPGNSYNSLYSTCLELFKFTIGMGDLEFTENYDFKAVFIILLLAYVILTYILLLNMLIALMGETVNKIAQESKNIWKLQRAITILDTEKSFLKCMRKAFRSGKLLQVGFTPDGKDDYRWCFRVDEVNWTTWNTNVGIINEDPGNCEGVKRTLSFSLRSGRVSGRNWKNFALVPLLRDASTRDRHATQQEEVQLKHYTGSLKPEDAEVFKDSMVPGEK
Method: Assays were carried out in 2×10^−5 M extracellular Ca^2+ in 96 well plate formats at room temperature (22°C) for 10 min with robotic liquid handling. […] We hypothesized that calmodulin antagonists and some registered drugs may exert their blocking effect with another mechanisms on TRPV1 and not necessarily on their conventional target.
TRPV1-NIH3T3 mouse fibroblast line, ectopically expressing the rat TRPV1 was established previously.
Vanilloid agonist inducible calcium transport was assayed in adherent cell lines ectopically expressing the C-terminally ε-tagged rat TRPV1 (3×10^4 cells/well) and primary cultures prepared from embryonic DRG, seeded in poly-D lysine/collagen coated 96 well plates. […] The previously established cell lines and standardized DRG cultures were extensively characterized for functional cell-based TRPV1 studies [1]–[4]. Immediately before the transport assay, cells were adapted to room temperature (20°C) for 5 min in HCM. ^45Ca^2+-uptake was performed for 10 min at 20°C in HCM using 0.1 µCi ^45Ca^2+ as radioactive tracer in a 100 µl final volume. […] Aliquots of the solubilized cell extracts were mixed with 120 µl Microscint-40 and counted in a 96 well plate liquid scintillation counter (TopCount-NXT, Packard).

For `Clc1ccc(C(c2ccc(Cl)cc2)n2cc[n+](CC(OCc3ccc(Cl)cc3Cl)c3ccc(Cl)cc3Cl)c2)cc1` (stereo not shown) [calmidazolium], the “heat-evoked responses, % of pre-calmidazolium baseline control” value ([1]; anesthetized rat, iontophoresis 100 nA, noxious peripheral heat on hind paw, mean±SD, n = 6) is given as 34±23%, the “duration of inhibition (entire recording period)” value ([1]; heat-evoked responses, rat) is given as “about 2 hrs” and the “effect on heat-induced tail-flick latency” value (heat-induced tail-flick) is given as “inhibit”. For the same molecule, the “efficacy on TRPV1 (in words)” value (TRPV1) was “µM scale”.
